One compound from patent publication US9649324B2, “Use of tylvalosin as antiviral agent” (ECO ANIMAL HEALTH LIMITED, priority 2006, dated 2017) can be followed below.

Data set [1] concerns PRRSV. In words: PRRSV infection and cell spread in MA104 cells, drug added after infection (Example 5). The data set is classed as cell-based. To be noted: moi 0.01, 1 μg/ml added 8 hours post infection. How it is done: MA104 cells were infected with PRRSV at moi of 0.01 (should infect roughly 10% of the cells in the first round). 8 hours post infection tylvalosin, tylosin and tilmicosin were added at 1 μg/ml. Cells were harvested 28 hours post infection and infection was assessed by indirect immunofluorescence.
As stated above a moi of 0.01 should infect roughly 10% of the cells. However, after 28 hours the virus will have completed one round of infection and will have infected neighbouring cells. […] This detection increases 16-20 hours post infection and by 24 hours low levels of expression in neighbouring cells can be detected.
The addition of drugs 8 hours post infection should have no effect on the primary infection (i.e. no effect on entry of input virus). It could, however, effect viral replication directly or indirectly through other mechanisms and could also effect virus entry during the secondary round of infection where virus produced by the initially infected cells infects neighbouring cells.

For data set [2], the system named is equine arteritis virus (EAV). In words: Effect on equine arteritis virus infection (Example 6). In kind it is cell-based. How it is done: Experiments were carried out to determine whether tylvalosin has an effect on equine arteritis virus (EAV).
In data set [3] the test system is influenza strain Udorn. In words: Influenza virus time course in MDCK cells, immunofluorescence and plaque assay (Example 12). In kind it is cell-based.
Data set [4] concerns HRT-18 cells. In words: Intracellular accumulation of macrolides in HRT-18 cells. In kind it is in vitro ADME, human. To be noted: for average intracellular concentration / intracellular:extracellular ratio: 10 μg/mL antibiotic. How it is done:
HRT-18 cells, in 6 cm tissue cultures dishes, were incubated in the presence of 0.5, 5 or 50 μg/mL tylvalosin. After 4 h, two dishes for each tylvalosin concentration and two dishes without antibiotic were removed from the incubator. A sample of medium (about 1 mL) was removed, placed in a labelled Eppendorf tube and stored at −20° C. The rest of the medium was then removed. Each of the cell monolayers was washed twice in PBS, using approximately 5 mL for each wash. The plunger from a 2 mL plastic syringe was used to gently scrape off the cells. PBS (500 μL) was added to the dish and the cells gently removed into this medium, using a micropipette. The sample was then placed in an Eppendorf tube and centrifuged at 8000×g in a bench centrifuge (Biofuge pico, Heraeus instruments) for 13 sec. An obvious cell pellet formed. The supernatant was removed using a micropipette and the cell material was stored at −20° C. in a labelled Eppendorf tube. After approximately 24 h the remaining tissue culture dishes were removed from the incubator and treated as described above for the 4 h samples. All the samples, including the 4 h samples, were then stored at −70° C.
HRT-18 cells were prepared as described above and used at passage 42. Stock solutions of antibiotics (either tylvalosin, tylosin or tilmicosin) were diluted in growth media and 10 μg/mL each antibiotic was added to the confluent cell monolayers. The cells were incubated at 37° C. in a 5% CO2 atmosphere for either 4 h or 24 h. The media and cells were harvested and tested for antibiotic, as described above.
All the supernatant and cell samples were transported frozen (at approximately −20° C.) to York Bioanalytical Solutions (York, England) for analysis. Briefly, 0.25 g of buffer (RPMI medium containing 10% FCS) was weighed into a polypropylene tube. A 50 μL volume of the appropriate working solution was added to the quality control (QC) samples. Methanol (50 μL) was added to each blank sample used for preparation of calibration standards, recovery samples and reagent blanks. A 2.5 mL volume of 0.1 M phosphate buffer was added to each sample, vortex mixed for approximately 1 min and then centrifuged at 3220×g for 10 min at 4° C.
For the liquid-liquid clean-up phase, an aliquot (100 μL) of the supernatant was transferred to a polypropylene tube. The pH was adjusted to pH 8-8.5 by the addition of 0.1 M NaOH, and vortex mixed. Ethyl acetate (5 mL) was added and after capping, the whole mixture was shaken for 10 min and then centrifuged at 3220×g for 10 min at 4° C.
Ammonium acetate (20 mM; pH native)—formic acid, 1000:3, v/v (100 μL) was added to each well in a 2 mL polypropylene collection plate. An aliquot of the ethyl acetate mixture (100 μL) was transferred to the polypropylene collection plate and evaporated under nitrogen (40° C.) until the ethyl acetate was fully evaporated whilst the ammonium acetate remained. Methanol (100 μL) was added to each well, excluding the calibration standards.
To each well containing a calibration standard, 100 μL of the appropriate calibration working solution was added. Samples were then vortex mixed for at least 10 min and submitted for liquid chromatography with tandem mass spectrometric analysis. The method stated was applicable to the samples of media (and the calibration standards and quality control samples).
For the cells, the sample tubes were weighed, and 100 μL of acetonitrile was added. The samples were vortex mixed for 10 sec, then centrifuged at 10285×g at 4° C. for 5 min. The sample was transferred to a polypropylene tube. The original sample tube was washed with 0.1 M phosphate buffer (1 mL). This was transferred to the polypropylene tube. A second wash of 1 mL was made, then a final wash of 0.5 mL. The polypropylene tube was now at the same stage as the end of the liquid extraction, but with the cells present rather than media. This was then taken through the sample preparation as described above. […]

Molecules are shown by their SMILES.

Turning to `CCC1OC(=O)CC(OC(C)=O)C(C)C(OC2OC(C)C(OC3CC(C)(O)C(OC(=O)CC(C)C)C(C)O3)C(N(C)C)C2O)C(CC=O)CC(C)C(=O)C=CC(C)=CC1COC1OC(C)C(O)C(OC)C1OC` (stereo not shown) [tylvalosin, 3-O acetyl-4″-O-isovaleryltylosin], the “spread of the virus to neighbouring cells” value in data set [1] is given as “prevented spread”. In data set [1] (harvested 28 hours post infection), the virus positive cells came out at 1%. Besides, the EAV infection entry in data set [2] was “not blocked”. Also, in data set [3], the “influenza strain Udorn infection over the 24 hour period (immunofluorescence and plaque assay)” value is given as “inhibited”. Moreover, in data set [4] (HRT-18 cells, 4 h), the average intracellular concentration was 61.8 μg/mg cells and the “intracellular:extracellular ratio” value was 5.13 fold. For the same compound, in data set [4] (HRT-18 cells, 24 h), the average intracellular concentration is 57.6 μg/mg cells and the “intracellular:extracellular ratio” value is given as 5.34 fold. For the same compound, in data set [4] (HRT-18 cells, 0.5, 5 or 50 μg/mL tylvalosin, within 4 h), the “concentration of tylvalosin accumulated in the cells” value is “at least 585 μg”. Also, the “cell:medium concentration ratio” value in data set [4] (HRT-18 cells, 24 h incubation, compared with 4 h) was “lower”.
